tested on: P. falciparum 3D7 growth, pLDH absorbance; assay: blood-stage malaria parasite growth potency – strain 3D7, dose response (AID 2305)

| SMILES | IC50 |
| --- | --- |
| CCOC(=O)c1ccc(NC(=O)N(Cc2ccc(-c3ccc(CN4CCNCC4)cc3)cc2)Cc2cccnc2)cc1 | 930 nM |
| CCCN(Cc1nnc(-c2cccs2)o1)C(=O)CSc1nnnn1-c1ccc(C)c(C)c1 | 580 nM |
| Cc1ccc(NC(=O)c2ccc3ncccc3c2)cc1OC1CCN(Cc2ccc(F)cc2)CC1 | 940 nM |
| COc1cc2c(cc1C(F)(F)F)N(C(=O)Nc1cc(F)c(F)c(-c3cccnc3)c1)CC2 | 630 nM |
| CCCc1cc(O)c2c3c(c(=O)oc2c1)CN(C)CC3 | 870 nM |
| FC(F)(F)c1ccc2nc(-c3cccc(-c4cccc(CNCC5CCCO5)c4)c3)[nH]c2c1 (stereo not given) | 420 nM |
| CCc1c(C)nc2nc(Cc3cccc(F)c3)nn2c1N1CCN(c2ccccn2)CC1 | 750 nM |
| CNCCCN(C)C(=O)Oc1c(Br)c(C)nc(C)c1-c1ccc(Oc2ccc(OC(F)(F)F)cc2)cc1 | 390 nM |
| O=C(NCC1CCC(C(=O)NCCc2ccc(Cl)c(Cl)c2)CC1)c1ccc(O)c(-c2ccc(Cl)c(Cl)c2)c1 (stereo not given) | 890 nM |
| Cc1[nH]c(C)c(-c2ccc(Oc3ccc(Cl)cc3)cc2)c(=O)c1Br | 590 nM |
| CCc1c(CCNCCCCCCNC(C)(C)Cc2ccc3c(c2CC)OCO3)ccc(OC)c1OC | 930 nM |
| FC(F)(F)c1ccc2nc(-c3cccc(-c4cccc(CNCCc5ccncc5)c4)c3)[nH]c2c1 | 140 nM |
| N#Cc1c(N)nc(SCC(=O)Nc2cc(C(F)(F)F)ccc2Cl)c(C#N)c1-c1cccs1 | 740 nM |
| Nc1cccc(CNCc2cccc(-c3ccc(-c4nc5ccc(C(F)(F)F)cc5[nH]4)cc3)c2)c1 | 360 nM |
| COc1ccc(CNC(=O)NC2CCN(c3ccnc(Nc4ccc(OC)cc4)n3)C2)cc1 (stereo not given) | 1000 nM |
| CC(C)COc1ccc(Cl)cc1Cc1nc(-c2nc3ccc(CN4CCCC4)cc3[nH]2)co1 | 730 nM |
| O=C(/C=C/C=C/c1ccccc1)NC1CCC(CN2CCC(c3c[nH]c4ccccc34)CC2)CC1 (stereo not given) | 870 nM |
| CC(C)(C)c1cc([N+](=O)[O-])cc(C(=O)Nc2ccccc2C(F)(F)F)c1O | 650 nM |
| CS(=O)(=O)c1ccc(CNCc2cccc(-c3cccc(-c4nc5ccccc5[nH]4)c3)c2)cc1 | 590 nM |
| COCCNc1nc(N2CCC(CNC(=O)c3ccc(-c4ccc(C(=O)N(C)C)cc4C)cc3)CC2)nc2cc(OC)c(OC)cc12 | 1020 nM |
| Cc1cccc2[nH]c(-c3cccc(-c4cccc(CN5CCN(c6ccc(C#N)cn6)CC5)c4)c3)nc12 | 1160 nM |
| COCc1cc(C)nc2sc(C(=O)Nc3cc(C(C)(C)C)ccc3O)c(N)c12 | 710 nM |
| CCn1ncc(Cl)c1CN(C)S(=O)(=O)c1ccc2ccccc2c1 | 820 nM |
| CCCCCNc1nc(Nc2ccccc2C)nc2ccccc12 | 740 nM |

| SMILES | IC50 |
| --- | --- |
| C=CCN1C(=O)C(C(C)=O)=C(O)C1c1ccccc1 (stereo not given) | 50 nM |
| COc1ccc(OCC(O)CN(Cc2ccccc2OC)C(=O)Nc2ccc(Br)cc2)cc1 (stereo not given) | 750 nM |
| CCCc1cc(N2CCC(c3ccccc3)(N3CCCCC3)CC2)nc(Nc2ccc(OC)cc2)n1 | 1090 nM |
| COc1cc2c(cc1S(=O)(=O)c1ccc(COc3ccc(C(F)(F)F)cc3)cc1)CNCC2 | 750 nM |
| Cc1nn(C)cc1C(C)Nc1nncc(-c2ccc(C(F)(F)F)cc2)n1 (stereo not given) | 250 nM |
| O=C(/C=C/c1ccc(Cl)c(Cl)c1)NCCCCCN1CCC(NC(=S)Nc2ccc(Cl)cc2Cl)CC1 | 740 nM |
| NC1CCCN(Cc2cccc(-c3ccc(-c4nc5ccc(F)cc5[nH]4)cc3)c2)C1 (stereo not given) | 570 nM |
| COc1ccc2ncc(F)c(CCN3CCC(NCc4cc(Br)c5c(c4)OCCO5)CC3)c2n1 | 190 nM |
| Cc1cccc2[nH]c(-c3cccc(-c4ccc(NC(=O)Cc5cnc[nH]5)cc4)c3)nc12 | 690 nM |
| Cc1ccccc1NC(=O)NC1CCN(CCCCCNC(=O)/C=C/c2ccc(Cl)c(Cl)c2)CC1 | 770 nM |
| CN1CCCc2cc(NC(=O)c3cc(-c4ccc(Cl)cc4)cs3)ccc2C1 | 810 nM |
| Cc1ncsc1CCN1C(=O)CC2(C1=O)C(=O)N(Cc1ccccc1)c1ccc(Cl)cc12 (stereo not given) | 980 nM |
| Cc1nc(C)c(CC(=O)Nc2cccc(-c3cccc(-c4nc5ccc(C(F)(F)F)cc5[nH]4)c3)c2)s1 | 830 nM |
| CC(C)N1CCC(N(Cc2ccc(-c3ccc(Cl)cc3)cc2)C(=O)Cn2c(CCc3cccc(F)c3F)nc(=O)c3ccccc32)CC1 | 940 nM |
| Cc1[nH]c(C)c(-c2ccc(Oc3ccc(F)cc3)cc2)c(=O)c1Cl | 50 nM |
| Cc1ccc(S(=O)(=O)N2CCN(C(=O)c3cc(-c4cccs4)[nH]n3)CC2)c(C)c1 | 870 nM |
| Cc1cccc2[nH]c(-c3ccc(-c4cccc(CN5CC(C)OC(C)C5)c4)s3)nc12 (stereo not given) | 760 nM |
| CCCCCN1CCCCC(NS(=O)(=O)c2ccc(C(=O)Nc3ccc(C(F)(F)F)cc3)cc2)C1 (stereo not given) | 770 nM |
| COc1cccc2c1CCN(CCN1CCC(NC(=O)c3ccc(-c4cccc(Cl)c4Cl)cc3)CC1)C2 | 700 nM |
| COc1ccc(-c2cc(C(=O)N[C@@H](CC3CCCCC3)C(=O)NC3CCCc4ccccc43)ccc2O)cc1 (stereo not given in full) | 690 nM |
| CC(=O)c1ccc(Nc2c(C(N)=O)cnc3cc(-c4c(C)noc4C)ccc23)cc1 | 190 nM |
| c1ccn2c(-c3ncnc(NCc4ccc5c(c4)CCO5)n3)cnc2c1 | 1190 nM |
| CCCCCC(C)(C)NC[C@@H](O)[C@H](Cc1ccccc1)NC(=O)c1cc(NCC)cc(N2CCCC2=O)c1 | 670 nM |
| COc1ccccc1CN1CCC(CNC(=O)c2cc(-c3cccc(C(F)(F)F)c3)cs2)C1 (stereo not given) | 1310 nM |

| SMILES | IC50 |
| --- | --- |
| Cc1cccc(C(=O)NC(NC(=S)Nc2cc(Cl)ccc2Cl)C(Cl)(Cl)Cl)c1 (stereo not given) | 1270 nM |
| Cc1nc(-c2ccc(-c3ccc(NC(=O)Nc4ccc(I)c(OCCN(C)C)c4)cc3)c(C)c2)no1 | 370 nM |
| COc1ccc(OC)c(Cc2cnc3nc(N)[nH]c(=O)c3c2C)c1 | 360 nM |
| COCCSc1ccc(CC(C)NCC(O)c2cccc(Cl)c2)cc1 (stereo not given) | 760 nM |
| CN1CCN(c2ccnc3ccc(NC(=O)Cc4ccc(Br)c5ccccc45)cc23)CC1 | 810 nM |
| COc1ccc2ncc(F)c(CCN3C[C@H](CNCc4ccc5c(c4)OCCO5)[C@H](O)C3)c2n1 | 930 nM |
| CCOc1ccc2c(c1)N(C(=O)C=Cc1ccccc1)C(C)(C)c1ssc(=S)c1-2 | 1150 nM |
| FC(F)(F)c1ccc2nccc(NN=Cc3cccnc3)c2c1 | 630 nM |
| Cc1ccc(-n2cc(CNCCc3ncc(C)[nH]3)c(-c3ccc(F)cc3)n2)cc1 | 1510 nM |
| CCCCCCOc1ccc(C(=O)N(Cc2ccccc2)c2c(-c3ccccc3)nc3cc(C)ccn23)cc1 | 770 nM |
| CN(/N=C/C=C/c1ccc(Cl)cc1)c1nc(NCCc2ccc(O)cc2)nc(N2CCNCC2)n1 | 870 nM |
| N=c1ccn(CC(=NO)c2ccc(Cl)c(Cl)c2)cc1 | 940 nM |
| CC(C)CNCc1ccc(-c2cccc(CN(C(=O)CCC3CCCC3)C3CCN(Cc4ccccc4)CC3)c2)cc1 | 800 nM |
| O=C(Nc1ccccc1)c1nn(CCCN2CCC(N3CCCC3)CC2)cc1-c1ccc(Cl)c(Cl)c1 | 240 nM |
| COCCn1c(-c2cccc(Cl)c2)nn(-c2ccc([N+](=O)[O-])cc2Cl)c1=S | 740 nM |
| Cc1cccc(CNc2nc(C)cc(N[C@@H](Cc3ccccc3)C(=O)NC3CCCC3)n2)c1 | 650 nM |
| CCn1ncc2c(N3CCCC3=O)cc(C(=O)N[C@@H](Cc3ccccc3)[C@H](O)CNC(C)(C)c3cccc(C(F)(F)F)c3)cc21 | 150 nM |
| COc1cc(NC(=O)/C=C/c2cc(F)cc(F)c2F)cc(OCCN2CCC3(CC2)OCCO3)c1 | 270 nM |
| Cc1sc2cc(Cl)cc(Cl)c2c1S(=O)(=O)Nc1ccc2nccc(N3CCNCC3)c2c1 | 120 nM |
| COc1ccc(C=NNc2cc(C)nc3ccccc23)cc1OC | 860 nM |
| N#Cc1cccc(/C=C/C(=O)NC2CCC(CCN3CCc4ccc(-c5cnccn5)cc4CC3)CC2)c1 (stereo not given) | 770 nM |
| Clc1ccc(CNc2nc(NCCc3cnc[nH]3)nc(Nc3ccc4c(c3)OCO4)n2)cc1 | 950 nM |
| CCN1CCN(c2cc(C)c3cc(NC(=O)c4cncc(Br)c4)ccc3n2)CC1 | 660 nM |
| O=C(Nc1ccc(-c2ccc(CN3CCNCC3)cc2)cc1)c1cccc(Cl)c1 | 890 nM |

| SMILES | IC50 |
| --- | --- |
| CN1C(=C2SC(=Nc3ccc4ncccc4c3)N(Cc3ccccc3)C2=O)Sc2ccc(Cl)cc21 | 1060 nM |
| CCc1cn2c3c(cc(C(=O)N[C@@H](Cc4ccccc4)[C@H](O)CNC4CCCCC4)cc13)N(C)S(=O)(=O)C2 | 90 nM |
| CC1(C)N=C(N)N=C(N)N1CCc1ccccc1 | 50 nM |
| Cn1nccc1C(=O)NCCNCc1ccc(-c2cccc(-c3nc4ccc(C(F)(F)F)cc4[nH]3)c2)cc1 | 120 nM |
| C[C@H](NCCC1CCC(NC(=O)N[C@H](C)C(O)(c2ccccc2)c2ccccc2)CC1)c1cccc2ccccc12 (stereo not given in full) | 1100 nM |
| c1ccc(C2CCC(N3CCC(N4CCCC4)CC3)CC2)cc1 (stereo not given) | 670 nM |
| O=C(Nc1cccc(CN2CCN(C(=O)c3cccc(F)c3)CC2)c1)c1ccco1 | 770 nM |
| Cc1cc(NCCc2ccccc2)nc(/N=C(\N)Nc2ccccc2Cl)n1 | 790 nM |
| CCc1ccc(O)c(-c2cc(C(=O)Nc3ccc(OC)c(Cl)c3)[nH]n2)c1 | 870 nM |
| O=C(NCCCCCN1CCC(c2c[nH]c3ccccc23)CC1)c1ccc(-c2ccccc2)nc1 | 1020 nM |
| CNC(=O)Cc1ccc(C(=O)Nc2cccc(-c3ccc(-c4nc5c(C)cccc5[nH]4)s3)c2)cc1 | 630 nM |
| COc1ccc2nccc([C@@H](O)CN3CCC(NCCOc4cccc(F)c4F)CC3)c2c1 | 240 nM |
| O=C(Nc1cccc(CCNCc2ccccc2)c1)Nc1cccc2ccccc12 | 730 nM |
| CC(=O)N1CCN(c2ccc(NC(=O)c3oc(-c4ccccc4)nc3C(F)(F)F)cn2)CC1 | 840 nM |
| COc1ccc(C2CC(=O)C3=C(C2)NC(C)=C(C(=O)OC(C)C)C3c2cccc(O)c2)cc1OC (stereo not given) | 780 nM |
| O=C(Nc1ccccc1)Nc1ccc(-n2ccc(C(F)(F)F)n2)cc1 | 630 nM |
| CCOc1cc(NCCCNc2ncc([N+](=O)[O-])cc2C)nc2ccccc12 | 690 nM |
| CCc1cccc(-n2c(=O)c3cccnc3n2CC(=O)NCc2ccccc2Cl)c1 | 740 nM |
| COc1ccc(-c2cccc(NC(=O)c3ccc(C#N)cc3)c2)cc1CN1CCN(C)CC1 | 990 nM |
| O=S(=O)(NCCN1CCCC1)c1ccc(-c2cccc(CNCc3ccccc3)c2)s1 | 810 nM |
| C=CCc1cc(C2CCN(CCCCNC(=O)c3ccc(-c4ccc(C#N)cc4)cc3)CC2)c(OCC(N)=O)c2c1CCCC2 | 800 nM |
| CCc1cn2c3c(cc(C(=O)N[C@@H](Cc4ccccc4)[C@H](O)CNC(C)(C)c4cccc(OC)c4)cc13)N(C)S(=O)(=O)C2 | 60 nM |
| O=C(Nc1ccc(C(=O)N2CCN(CCN3CCN(c4cccc(C(F)(F)F)c4)CC3)CC2)cc1)c1cc(Cl)cc(Cl)c1 | 830 nM |

Reference: PubChem BioAssay AID2305 (GlaxoSmithKline (GSK), 2010)
